Article PMC8894198, “Biosynthetic Microcin J25 Exerts Strong Antibacterial, Anti-Inflammatory Activities, Low Cytotoxicity Without Increasing Drug-Resistance to Bacteria Target” (Frontiers in Immunology, 2022)
Where a SMILES comes first, the peptide text is derived from it. Bridges are numbered along the chain shown (N, C = ends).

Assays:
[1] = system: cocktail of MDR E. coli strains (521ZQE, AZ1, WWE921A-2) in C57BL/6 J mice; assay: Cocktail of MDR E. coli strains challenge in mice, MccJ25 pretreatment; type: in vivo
Excerpt: 4-week-old C57BL/6 J female mice [initial body weight (BW) 15.23 ± 0.09] were purchased from Charles River Laboratories (Beijing, China) and raised under standard conditions. The producer was described in “Mice Model” section. […] Mice were maintained in a 3-d acclimatization period of time. Afterwards, 36 mice were randomly separated into three experimental groups based on BW: Uninfected group, control; Infected group; MccJ25+infected group, 12 mice per group in four cages, three mice/cage, total of 12 cages. Cocktail of MDR E. coli strains infection producers were performed as our previous described previously ([30]), experimental roadmap was shown in Figure 10A . A single of colony of MDR E. coli strains 521ZQE, AZ1, and WWE921A-2 were incubated in LB medium and grew to stationary stage (OD600 > 3), respectively. All mice were pretreated 0.2 ml PBS (control and infected group) or 0.2 ml PBS containing with 9.1 mg/kg/BW MccJ25 (MccJ25+infected group) for 3 d (once/day) prior to infection. Infected mice and MccJ25+infected mice received 0.2 ml sterile PBS containing 5 × 10^8 cocktail of MDR E. coli strains by oral gavage. The control group still received 0.2 ml of sterile PBS by gavage for 2 d. The concentration of biosynthetic MccJ25 was selected based on our previous study ([24]). After 3 d, mice were euthanized friendly, intestinal tissues, organs and serum were obtained. Fresh fecal, tissues, liver, and spleen were immediately placed on ice (1-2 h) and transported to the laboratory to count the specific bacteria in the laboratory. Serum was kept in -20°C and part of jejunum, colon, and spleen were stored in the -80°C for cytokines analysis.
In the LPS-challenged mice experiment, lifespan of mice was monitored for 72 h. In the cocktail of MDR E. coli strains infection experiment, BW change, rectal temperature, diarrhea scores and fecal image, or survival rate were measured. For the diarrhea score evaluation producer was referred to previous study ([24]).
The 0.1 g fresh jejunum, ileum, proximal colon, feces, liver, and spleen were collected and kept in sterile tubes containing 0.9 ml sterile physiological saline solution. Then, cryogenic lapping instrument (Shanghai Jingxin Industrial Development Co., Ltd., China) was applied to prepare the homogenate. 0.1 mL indicated samples prepared by ten-fold serial dilutions method were plated on indicated antibiotics MacConkey (OXOID, Hampshire, UK) and ChromAgar™ (OXOID, Hampshire, UK) plates. These plates were cultured overnight at 37°C to count colonies. Colony numbers were expressed as log 10 CFU/g of samples. All counts were performed in triplicate. Colonies were observed on the MacConkey agar and ChromAgar plates in the absence of indicated antibiotics, we considered that they were enterobacteria-like bacterium belonging to the class of family Enterobacteriaceae.
Quantification of total bacteria, E. coli, Lactobacillus, and Bifidobacterium was done using PCR. In brief, total microbial DNA from cecal digesta was obtained. The total bacteria, Lactobacillus, Bifidobacterium, E. coli primers were synthesized in Invitrogen (Shanghai, China), which are listed in Table S1 . Standard curves of indicated bacteria were generated based on the construction of standard plasmids containing the 16S rRNA genes. The copy numbers of total bacteria, Lactobacillus, Bifidobacterium, and E. coli were calculated referring to standard curves as described previously ([30]).
The concentrations of tumor necrosis factor-α (TNF-α), interleukin-6 (IL-6), IL-4, interferon (IFN)-γ, and nitric oxide (NO) in serum were measured. In addition, TNF-α and NO levels were also measured in the supernatant of RAW264.7 cells. ELISA was performed using a commercial ELISA kit (eBioscience, San Diego, USA). LPS levels in plasma were analyzed using the QCL-1000 kit (Xiamen, China) based on the manufacturer’s standards. […]

E. coli K88 = system: E. coli K88
Experimental: The resistance of MccJ25 to pepsin, trypsin and chymotrypsin was evaluated based on previous studies ([26]), with minor modifications. E. coli K88 cells were prepared (approximately 1 × 10^7 CFU/mL), and 1 mL of the bacterial suspension and MccJ25 were transferred into 9 mL of medium. For the control, MccJ25 was not added. LB agar inoculated with E. coli K88 cells (~10^5 viable cells/mL) was poured onto a plate containing an Oxford cup to form individual wells. Then, 2 and 4 h MccJ25 (1 × MIC) previously subjected to different treatments were added to the wells. The agar overlay was incubated overnight at 37°C, and the diameter of the growth inhibition zone was measured.
The simulated gastric fluid (SGF) and simulated intestinal fluid (SIF) were mainly based on the relevant contents of the Chinese Pharmacopoeia as described previously ([26]). SGF was configurated with 10 mg/mL pepsin, 0.03 M NaCl was used to blend the pH to 1.5, while SIF was configured with 10 mg/mL trypsin, 0.05 M KH2PO4 was used to blended pH as 7. SGF and SIF were then measured separately, and the antimicrobial activity of MccJ25 in serum was determined. E. coli K88 cells were grown in MHB (Difco Laboratories, Detroit, MI, USA). In short, 1 mL of the bacterial suspension and MccJ25 were transferred into 9 mL of medium. The control group was as follows: no MccJ25 was added to it. E. coli K88 cells with a live cell count maintained at approximately 10^5 cells per milliliter were inoculated on LB agar, which was then poured into plates equipped with Oxford cups, thus forming wells. Then, MccJ25 (1 × MIC) previously treated with SGF, SIF and serum for 2, 4, and 6 h was added to these wells. One of the agar substances covering the wells needs to be incubated overnight at 37°C, and finally, the size of its growth inhibition area, i.e., the diameter, needs to be determined.

[2] = 9.1 mg/kg/BW oral gavage for 3 d before infection
[3] = ELISA, vs infected group, n = 6
[4] = jejunum, colon and spleen, qPCR, vs infected mice

## CC[C@H](C)[C@H](NC(=O)CNC(=O)[C@@H](NC(=O)[C@H](Cc1ccccc1)NC(=O)[C@H](Cc1ccc(O)cc1)NC(=O)[C@@H]1CCC(=O)NCC(=O)NCC(=O)N[C@@H](C)C(=O)NCC(=O)N[C@@H](Cc2c[nH]cn2)C(=O)N[C@@H](C(C)C)C(=O)N2CCC[C@H]2C(=O)N1)C(C)C)C(=O)NCC(=O)N[C@H](C(=O)N1CCC[C@H]1C(=O)N[C@H](C(=O)N[C@@H](CO)C(=O)N[C@@H](Cc1ccccc1)C(=O)N[C@@H](Cc1ccc(O)cc1)C(=O)NCC(=O)O)[C@@H](C)CC)[C@@H](C)O [MccJ25, microcin J25] (GGAGHVPEYFVGIGTPISFYG-OH; lactam N-8 (inferred); C-terminus assumed)
[1]; [2]
  body weight: increasing BW
  diarrhea incidence: decreasing diarrhea incidence
  rectal temperature: increasing
[1]; 9.1 mg/kg/BW oral gavage once/day for 3 d before infection, n = 12
  lifespan / survival: prolonging the lifespan
[1]; [3]
  serum IL-4: higher IL-4
  serum proinflammatory cytokines (TNF-α, IFN-γ, IL-6): lower proinflammatory cytokines
[1]; d 3 after infection, n = 6
  MDR E. coli colonization in liver and spleen: effectively reduced the degree of clinically source MDR E. coli colonization and expansion
[1]; [4]
  IL-10 mRNA: high anti-inflammatory cytokine IL-10
  mRNA of proinflammatory indicators (TNF-α, IL-6, IFN-γ, IL-1β, TLR4, NF-κB): lower proinflammatory indicators
[1]; plate counts, d 3 after infection
  MDR E. coli in the intestines (jejunum, ileum, colon): significantly reduced the number and colonization
[1]; real-time qPCR
  copy number of E. coli in cecal contents: sharply decreased the copy number
  copy numbers of Lactobacillus, Bifidobacterium in cecal contents: significantly increased the copy numbers
  total bacteria copy numbers in cecal contents: no significant difference
[1]; vs infected group, n = 6
  bacterial load in the feces: markedly decreased the bacterial load
E. coli K88; MccJ25 1 × MIC pre-treated at 121°C for 20 minutes, Oxford cup, LB agar, overnight 37°C, n = 6
  growth inhibition zone after heat treatment: greater than 22 mm
E. coli K88; MccJ25 1 × MIC pre-treated at pH 2.0 to 9.0 for 2 h, Oxford cup, LB agar, overnight 37°C, n = 6
  growth inhibition zone after pH treatment: greater than 22 mm
E. coli K88; MccJ25 1 × MIC pre-treated with SGF, SIF and serum for 2, 4 and 6 h, inhibition zone
  antimicrobial activity after SIF, SGF or serum treatment: essentially the same as that of MccJ25 subjected to a single treatment
E. coli K88; MccJ25 1 × MIC pre-treated with pepsin, trypsin or chymotrypsin for 2 and 4 h, inhibition zone
  antimicrobial activity after protease challenge: retained
